Results taken from patent US6365613B1, “Fungicidal mixtures” (BASF Aktiengesellschaft, priority 1997, dated 2002).

Tested on: Botrytis cinerea
Assay: Activity against Botrytis cinerea on bell peppers (fruit disks, protective spray)
Type: in vivo
Conditions: single active ingredient, green bell pepper disks, 4 days at 18° C.
Method: Activity against Botrytis cinerea on bell peppers
Disks of green bell peppers were sprayed to runoff point with an aqueous preparation of active ingredient which had been prepared from a stock solution comprising 10% of active compound, 63% of cyclohexanone and 27% of emulsifier. 2 hours after the spray coating had dried on, the fruit disks were inoculated with a spore suspension of Botrytis cinerea containing 1.7×10^6 spores per ml of a 2% strength Biomalz solution. The inoculated fruit disks were subsequently incubated in humid chambers at 18° C. for 4 days. The Botrytis infection on the diseased fruit disks was then evaluated visually.
Evaluation was carried out by determining the infected leaf areas in percent. These percentages were converted into efficacies. The efficacy (E) was calculated as follows using Abbot's formula: […]
α corresponds to the fungal infection of the treated plants in % and β corresponds to the fungal infection of the untreated (control) plants in % An efficacy of 0 means that the infection level of the treated plants corresponds to that of the untreated control plants; an efficacy of 100 means that the treated plants were not infected.
The expected efficacies of the mixtures of the active ingredients were determined using Colby's formula [R. S. Colby, weeds 15 (1967), 20-22] and compared with the observed efficacies.
Colby's formula: E=x+y−x·y/100
E expected efficacy, expressed in % of the untreated control, when using the mixture of the active ingredients A and B at the concentrations a and b x efficacy, expressed in % of the untreated control, when using the active ingredient A at the concentration a y efficacy, expressed in % of the untreated control, when using the active ingredient B at the concentration b

Row | Structure (SMILES) | Efficacy in % of the untreated control (6.3 ppm in the spray liquor) [%] | Efficacy in % of the untreated control (12.5 ppm in the spray liquor) [%] | Efficacy in % of the untreated control (25 ppm in the spray liquor) [%] | Efficacy in % of the untreated control (50 ppm in the spray liquor) [%]
1 | CCCCNC(=O)n1c(NC(=O)OC)nc2ccccc21 [Comp. IIa, methyl 1-(butylcarbamoyl)benzimidazol-2-ylcarbamate, reference compound] | 10 | 20 |  | 
2 | COC(=O)NC(=S)Nc1ccccc1NC(=S)NC(=O)OC [Comp. IIf, dimethyl 4,4′-(o-phenylene)bis(3-thioallophanate), reference compound] |  | 0 | 0 | 20
3 | CO/N=C(/C(=O)OC)c1ccccc1COc1ccccc1C [Compound Ia] | 20 | 30 | 30 | 50
4 | CO/N=C(/C(=O)OC)c1ccccc1COc1cc(C)ccc1C [Compound Ic] |  | 50 | 80 | 
